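Exposure lasted 48 hours, with cells grown in 96-well plates and compounds tested at five concentrations. TGI marks complete inhibition of growth.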
What was measured:
Assay in all cases: NCI-60 cell line screen, 48 h
IGROV1 ovarian = test system: IGROV1 ovarian
UACC-257 melanoma = test system: UACC-257 melanoma
SF-268 CNS = test system: SF-268 CNS
NCI-H522 lung = test system: NCI-H522 lung
SK-MEL-5 melanoma = test system: SK-MEL-5 melanoma
UO-31 renal = test system: UO-31 renal
SNB-19 CNS = test system: SNB-19 CNS
UACC-62 melanoma = test system: UACC-62 melanoma
HCC-2998 colon = test system: HCC-2998 colon
786-0 renal = test system: 786-0 renal
MCF7 breast = test system: MCF7 breast
K-562 leukemia = test system: K-562 leukemia
NCI-H460 lung = test system: NCI-H460 lung
T-47D breast = test system: T-47D breast
SK-OV-3 ovarian = test system: SK-OV-3 ovarian
U251 CNS = test system: U251 CNS
CAKI-1 renal = test system: CAKI-1 renal
TK-10 renal = test system: TK-10 renal
OVCAR-8 ovarian = test system: OVCAR-8 ovarian
SF-295 CNS = test system: SF-295 CNS
PC-3 prostate = test system: PC-3 prostate
HS 578T breast = test system: HS 578T breast
DU-145 prostate = test system: DU-145 prostate
SR leukemia = test system: SR leukemia
HT29 colon = test system: HT29 colon
MOLT-4 leukemia = test system: MOLT-4 leukemia
OVCAR-5 ovarian = test system: OVCAR-5 ovarian
NCI/ADR-RES ovarian = test system: NCI/ADR-RES ovarian
COLO 205 colon = test system: COLO 205 colon
KM12 colon = test system: KM12 colon
HOP-62 NSCLC = test system: HOP-62 NSCLC
SN12C renal = test system: SN12C renal
RXF 393 renal = test system: RXF 393 renal
A549 NSCLC = test system: A549 NSCLC
HCT-116 colon = test system: HCT-116 colon
ACHN renal = test system: ACHN renal
RPMI-8226 leukemia = test system: RPMI-8226 leukemia
NCI-H23 lung = test system: NCI-H23 lung
HCT-15 colon = test system: HCT-15 colon
EKVX NSCLC = test system: EKVX NSCLC
LOX IMVI melanoma = test system: LOX IMVI melanoma
MDA-N = test system: MDA-N
A498 renal = test system: A498 renal
SW-620 colon = test system: SW-620 colon
MALME-3M melanoma = test system: MALME-3M melanoma
NCI-H226 lung = test system: NCI-H226 lung
HOP-92 NSCLC = test system: HOP-92 NSCLC
SK-MEL-28 melanoma = test system: SK-MEL-28 melanoma
M14 melanoma = test system: M14 melanoma
OVCAR-4 ovarian = test system: OVCAR-4 ovarian
OVCAR-3 ovarian = test system: OVCAR-3 ovarian
HL-60(TB) leukemia = test system: HL-60(TB) leukemia
SF-539 CNS = test system: SF-539 CNS
SNB-75 CNS = test system: SNB-75 CNS
CCRF-CEM leukemia = test system: CCRF-CEM leukemia
MDA-MB-435 = test system: MDA-MB-435
MDA-MB-231 breast = test system: MDA-MB-231 breast
SK-MEL-2 melanoma = test system: SK-MEL-2 melanoma

Measured: TGI

CC(=O)Oc1cc2c[n+](C)c3c4cc(OC(C)=O)c(OC(C)=O)cc4ccc3c2cc1OC(C)=O
11 µM: RXF 393 renal
> 65.3 µM: A498 renal
> 48.4 µM: M14 melanoma
> 61.4 µM: SK-MEL-5 melanoma
9.46 µM: UO-31 renal
> 32.5 µM: HCT-116 colon
26.2 µM: HT29 colon
> 50.1 µM: OVCAR-5 ovarian
73.4 µM: EKVX NSCLC
> 57.8 µM: SF-295 CNS
not listed: OVCAR-4 ovarian | OVCAR-3 ovarian | HL-60(TB) leukemia | SF-539 CNS | SNB-75 CNS | CCRF-CEM leukemia | MDA-MB-435 | MDA-MB-231 breast | SK-MEL-2 melanoma
> 100 µM: all other assays above

COC(=O)[C@@H](NC1(c2ccccc2)c2ccccc2-c2ccccc21)[C@H](OC(=O)[C@H]1CCCN1S(=O)(=O)c1ccccc1)C(=O)OC
84.1 µM: HOP-92 NSCLC
not listed: CAKI-1 renal | HS 578T breast | RPMI-8226 leukemia
> 100 µM: all other assays above

COC(=O)c1c(C(=O)OC)c2ccc(-c3ccc(Cl)cc3)nn2c1C(=O)c1ccc([N+](=O)[O-])cc1
55.5 µM: RXF 393 renal
82.6 µM: MOLT-4 leukemia
57.9 µM: TK-10 renal
55.3 µM: RPMI-8226 leukemia
76.2 µM: CAKI-1 renal
39.5 µM: HOP-92 NSCLC
84.4 µM: EKVX NSCLC
37.3 µM: NCI-H522 lung
not listed: IGROV1 ovarian | HS 578T breast | SR leukemia | MALME-3M melanoma | SNB-75 CNS
> 100 µM: all other assays above
